This note sets out measurements from BindingDB's records for doi:10.1016/j.ejmech.2013.04.056 (Jamia Hamdard (Hamdard University), 2013).

This assay has as its target T1, Prostaglandin G/H synthase 1 (Ovis aries, UniProt P05979).
T1 sequence (P05979 whole entry): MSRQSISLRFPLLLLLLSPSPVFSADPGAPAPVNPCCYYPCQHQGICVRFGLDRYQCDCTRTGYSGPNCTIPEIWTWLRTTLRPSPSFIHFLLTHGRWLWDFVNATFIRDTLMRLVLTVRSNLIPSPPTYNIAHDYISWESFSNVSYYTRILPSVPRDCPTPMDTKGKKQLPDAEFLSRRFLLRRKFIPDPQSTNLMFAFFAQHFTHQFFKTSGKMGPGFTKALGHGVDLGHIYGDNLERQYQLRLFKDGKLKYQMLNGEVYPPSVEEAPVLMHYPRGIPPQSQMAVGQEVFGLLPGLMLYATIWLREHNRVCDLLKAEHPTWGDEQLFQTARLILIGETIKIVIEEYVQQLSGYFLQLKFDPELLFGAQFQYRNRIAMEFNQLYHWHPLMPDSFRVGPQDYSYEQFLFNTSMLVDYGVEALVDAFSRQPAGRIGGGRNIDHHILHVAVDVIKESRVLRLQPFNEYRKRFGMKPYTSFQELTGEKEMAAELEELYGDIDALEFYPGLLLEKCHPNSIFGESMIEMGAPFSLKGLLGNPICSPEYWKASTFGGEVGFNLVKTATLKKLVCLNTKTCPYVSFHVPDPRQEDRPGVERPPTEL
Nature of the assay: Inhibition of ovine COX1.

As to `COc1cc(/C=C/C(=O)c2c(O)cc(C)c(Cl)c2C)cc(OC)c1OC`, half-maximal inhibition (IC50) was put at 87.5 µM.
